Patent publication US8921416B2, “Dronedarone solid dispersion and preparation method thereof” (Jiangsu Hengrui Medicine Co., Ltd., priority 2010, dated 2014)
Where a name gives a salt, the structure may show the parent alone.

Key:
[1] = 24 h solubility of solid dispersions in PBS pH6.8; assay type: physicochemical; conditions: 37 °C, pH 6.8, aqueous buffer, thermodynamic from solid
Description: The weight ratio of the drug to the carrier was 1:5. Different hydrophilic polymeric carrier materials were selected from the group consisting of polyethylene glycol 6000, poloxamer 188, PVP K30, Klucel® EF, Plasdone® S-630, mannitol and combinations thereof respectively. 12 parts by weight of dichloromathane were added into the drug and carrier mixture, and was dissolved by stirring. Then the solution was transferred to a vacuum oven, maintained at 55° C., dried under reduced pressure for 48 h. Then the dry mass was crushed with a 100 mesh sieve, thereby the solid dispersion of dronedarone was obtained. The solubilities of the solid dispersion in the phosphate buffered saline (PBS) at pH6.8 were measured as follows.
24 h Solubility Determination: aliquots of the prepared solid dispersion were added into a 100 ml conical flask respectively. Then 50 ml PBS pH6.8 were added. The conical flask was sealed and placed in a thermostatic waterbath shaker and shaked at a set temperature of 37° C. for 24 h. After 24 hours, 10 mL of the solution were taken and filtrated. The initial 4 mL of the filtrate were abandoned and the subsequent filtrate were taken and diluted with PBS pH6.8 to a corresponding folds. The UV absorbance at 290 nm was measured with a UV spectrophotometer. Then the drug solubilities were calculated.

[2] = pH=7; cited from earlier work

SMILES	solubility at 24 h [1]	solubility in an aqueous solution [2]
CCCCc1oc2ccc(NS(C)(=O)=O)cc2c1C(=O)c1ccc(OCCCN(CCCC)CCCC)cc1 [Dronedarone hydrochloride]	12 µg/mL	
CCCCc1oc2ccc(NS(C)(=O)=O)cc2c1C(=O)c1ccc(OCCCN(CCCC)CCCC)cc1 [dronedarone, N-(2-Butyl-3-(4-(3-(dibutylamino)propoxy)benzoyl)-5-benzofuranyl)methanesulfonamide]		about 10 μg/ml
